Data published in US20020072051A1, “Screen for identifying inhibitors of GPI anchoring” (priority 2000, published 2002).

Tests used:
[1] = system: MCD4 catalyzed step in the GPI-anchor biosynthesis pathway; settings: cited from earlier work
[2] = molecular target: T1, Mcd4p (Saccharomyces cerevisiae, UniProt P36051); test: MCD4 overexpression and inositol-labeling experiments in mcd4-174; type: cell-based; settings: MCD4 overexpression; mcd4-174 mutant strain
T1 construct: overexpressed by cloning the gene under the control of its endogenous promoter in 2 micron (multi-copy) vectors; expressed in transfected cells; host or cells: yeast (S. cerevisiae) cells carrying MCD4 on a 2 micron multi-copy vector; also the mcd4-174 mutant strain for inositol labelling
T1 sequence (P36051 1-919): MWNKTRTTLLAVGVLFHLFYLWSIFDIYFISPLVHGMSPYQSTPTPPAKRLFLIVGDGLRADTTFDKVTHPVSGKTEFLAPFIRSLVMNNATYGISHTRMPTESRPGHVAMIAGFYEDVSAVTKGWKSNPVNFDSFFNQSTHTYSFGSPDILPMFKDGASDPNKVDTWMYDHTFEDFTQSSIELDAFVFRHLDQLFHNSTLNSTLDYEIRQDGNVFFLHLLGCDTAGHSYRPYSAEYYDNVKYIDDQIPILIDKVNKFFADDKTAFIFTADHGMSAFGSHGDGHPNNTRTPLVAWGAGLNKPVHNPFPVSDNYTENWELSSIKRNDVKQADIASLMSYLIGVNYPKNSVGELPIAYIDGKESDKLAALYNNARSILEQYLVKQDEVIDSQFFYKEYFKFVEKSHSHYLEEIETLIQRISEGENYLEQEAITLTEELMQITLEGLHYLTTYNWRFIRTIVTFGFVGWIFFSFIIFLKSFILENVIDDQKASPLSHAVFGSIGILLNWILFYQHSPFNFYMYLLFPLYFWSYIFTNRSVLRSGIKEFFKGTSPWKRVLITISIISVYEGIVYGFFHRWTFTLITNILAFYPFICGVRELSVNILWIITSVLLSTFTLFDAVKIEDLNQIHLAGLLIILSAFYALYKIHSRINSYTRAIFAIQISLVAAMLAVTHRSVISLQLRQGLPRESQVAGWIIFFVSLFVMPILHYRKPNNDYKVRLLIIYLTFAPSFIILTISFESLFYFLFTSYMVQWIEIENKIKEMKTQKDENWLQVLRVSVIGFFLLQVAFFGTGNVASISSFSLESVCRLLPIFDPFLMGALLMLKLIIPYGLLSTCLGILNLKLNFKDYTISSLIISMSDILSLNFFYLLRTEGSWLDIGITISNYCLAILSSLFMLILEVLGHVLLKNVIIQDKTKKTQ
From the text: An overexpression resistance (OER) assay was employed to determine the cellular target of compounds isolated via the primary assay. Each of the known genes in the GPI pathway were overexpressed by cloning the gene under the control of its endogenous promoter in 2 micron (multi-copy) vectors. This is a rapid and very powerful assay, but has certain limitations. For example, with a number of hits, precipitation of the compound can be observed when spotted onto plates. […] In such cases, the ability to detect increased resistance in the shoulder region is limited by the small zone size. […] Therefore, the OER assay, while very powerful and rapid, may be limiting when working with compounds that are weakly AF.
Studies on a natural compound, CJ-19089 (also known as YW3548, a terpenoid lactone) have documented that this compound targets the MCD4 catalyzed step in the GPI-anchor biosynthesis pathway. […] This inhibitor has proven to be a very valuable tool for examining the pathway and establishing standards for chromatographic analysis. […] CJ-19089 was used as a positive control in each assay and was used in comparison to untreated samples for assay development.

[3] = system: GPI anchor biosynthesis; test: in-vitro GPI anchor biosynthesis assay; type: biochemical; settings: UDP-[3H]-GlcNAc, ATP, Coenzyme A, GDP-mannose; TLC
From the text: Crude lysate from hypotonic lysing of spheroplasts as well as microsomal preparations can be used as an enzyme source for a coupled in vitro assay. Addition of UDP-[^3H]-GlcNAc, ATP, Coenzyme A and GDP-mannose provides the necessary substrates to synthesize a complete precursor from endogenous PI and fatty acid.

[4] = system: wild type yeast strain; test: SDS hypersensitivity assay; type: cell-based; settings: SDS in the growth media
From the text: Published data on a mcd4 mutant strain have shown that it has a number of characteristic phenotypes including increased sensitivity to SDS, an osmotic destabilizing detergent. The presence of as little as 0.004% SDS in the growth media leads to increased sensitivity of a wild type yeast strain to GPI-anchor inhibitors and thereby allows for the rapid screening of analogs. Again, this is a potentially information-rich assay but is subject to the same technical limitations discussed above for the OER assay.

[5] = system: UPR pathway; test: UPRE::lacZ reporter induction screen (primary assay); type: cell-based, Saccharomyces cerevisiae; settings: yeast cells containing 3X UPRE-CYClMINlacz, S. cerevisiae Δmdr mutant
From the text: Several UPRE::lacz reporter plasmids were constructed and used to transform a S. cerevisiae Δ mdr mutant and the transformants assessed for their ability to selectively respond to tunicamycin. The reporter sequence 3X UPRE-CYClMINlacz (FIG. 2) provided a selective, sensitive, and robust screening response to tunicamycin treatment and was selected for use in the Very High Throughput Screen (vHTS; Example 2). […] The activity of an associated β-galactosidase reporter gene thus served as an indirect signal of UPR-pathway stimulation.
The yeast strains were diploid Δmdr mutants of Saccharomyces cerevisiae: MMB 1663 (3XUPRE CYClMIN::lacz). Yeast glycerol stocks were prepared by culturing MMB 1663 (3XUPRE CYClMIN::lacZ) overnight to an OD 600 nm of 0.500. The culture was concentrated by centrifugation at 1000×g for 10 minutes and the pellet resuspended in fresh medium to an OD 600 nm of 1.00. An equal volume of HR Medium with 50% glycerol was added, producing a suspension of cells with an OD 600 nm of 0.500 and a final concentration of 25% glycerol. […]
4. […] (Packard TopSeal-A Plate Tape is not required for either plate reader when volumes are ≦50 μl for 384-well or ≦200 μl for 96-well plates).
5. After 90 minutes, β-galactosidase activity was read, using a 90 to 240 minute window. […]

## C=C1[C@@H]2C[C@@H]3[C@H](C(C)C)[C@@H](OC(=O)CC(C)(O)CC(C)CC)C[C@@]3(C)C[C@H]2/C(C)=C\C[C@@H]2[C@@H](C)OC(=O)[C@H](O)[C@]12O (some centres unmarked) [CJ-19089]
[1]
  incorporation of [3H]myo-inositol into proteins: prevents the incorporation of [^3H]myo-inositol into proteins
  step of GPI anchor biosynthesis blocked: specifically blocks the addition of the third mannose to the intermediate structure Man2-GlcN-acylPI
  toxicity: toxic
  transport of GPI-anchored proteins to the Golgi apparatus: prevents transport of GPI-anchored proteins to the Golgi apparatus
[2]
  cellular target: the target of this compound is Mcd4p
[3]
  accumulation of CJ-lipid: the CJ-lipid can be visualized

## OC(Cn1cncn1)(Cn1cncn1)c1ccc(F)cc1F [fluconazole]
[4]
  result on SDS plates: unambiguous positive result

## tunicamycin
[5]
  lacZ reporter gene transcription (UPR-pathway stimulation): over transcribed
